Results reported in the NIST ThermoML archive (doi:10.1021/je400667c).

Assay: mn = molality of the nth substance listed, in mol/kg
Conditions: for surface tension liquid-gas: Maximal bubble pressure; for mass density / electrical conductivity: 100 kPa, Liquid; for mass density: Vibrating tube method; for electrical conductivity: Frequency=0.003 MHz, Alternating current cell with electrodes

CCCCCCCCCCCCCCCCOCCOCCOCCOCCOCCOCCOCCOCCOCCOCCOCCOCCOCCOCCOCCOCCOCCOCCOCCOCCO + O
Conditions	mass density [kg/m3]	surface tension liquid-gas [mN/m]
298.15 K, m1 = 0.0005	995.7	–
298.15 K, m1 = 0.00199	–	68.7
298.15 K, m1 = 0.00251	–	66
298.15 K, m1 = 0.00316	–	64.2
298.15 K, m1 = 0.00398	–	63.2
298.15 K, m1 = 0.00501	–	61.3
298.15 K, m1 = 0.00708	–	59.4
298.15 K, m1 = 0.01	–	56.9
298.15 K, m1 = 0.01413	–	55.3
298.15 K, m1 = 0.02239	–	53.2
298.15 K, m1 = 0.02818	–	52.4
298.15 K, m1 = 0.03162	–	52.1
298.15 K, m1 = 0.03981	–	52.1
298.15 K, m1 = 0.05	997.07	–
298.15 K, m1 = 0.05012	–	51.9
298.15 K, m1 = 0.0631	–	51.9
303.15 K, m1 = 0.0005	995.58	–
303.15 K, m1 = 0.002	–	65.5
303.15 K, m1 = 0.00251	–	64
303.15 K, m1 = 0.00316	–	62.5
303.15 K, m1 = 0.00398	–	61
303.15 K, m1 = 0.00501	–	59.5
303.15 K, m1 = 0.00708	–	57.5
303.15 K, m1 = 0.01	–	55.8
303.15 K, m1 = 0.01413	–	53
303.15 K, m1 = 0.02239	–	51
303.15 K, m1 = 0.02818	–	50.8
303.15 K, m1 = 0.03162	–	50.7
303.15 K, m1 = 0.03981	–	50.7
303.15 K, m1 = 0.05	996.92	–
303.15 K, m1 = 0.05012	–	50.6
303.15 K, m1 = 0.0631	–	50.6
308.15 K, m1 = 0.0005	995.44	–
308.15 K, m1 = 0.002	–	63.1
308.15 K, m1 = 0.00251	–	62.4
308.15 K, m1 = 0.00316	–	60.2
308.15 K, m1 = 0.00398	–	59.1
308.15 K, m1 = 0.00501	–	57.1
308.15 K, m1 = 0.00708	–	55.3
308.15 K, m1 = 0.01	–	53.6
308.15 K, m1 = 0.01429	–	51.2
308.15 K, m1 = 0.02239	–	49.4
308.15 K, m1 = 0.02818	–	48.8
308.15 K, m1 = 0.03162	–	48.3
308.15 K, m1 = 0.03981	–	48.3
308.15 K, m1 = 0.05	996.78	–
308.15 K, m1 = 0.05012	–	48.3
308.15 K, m1 = 0.0631	–	48.3
313.15 K, m1 = 0.0005	995.3	–
313.15 K, m1 = 0.002	–	61.8
313.15 K, m1 = 0.00251	–	60.2
313.15 K, m1 = 0.00316	–	58.3
313.15 K, m1 = 0.00398	–	57.1
313.15 K, m1 = 0.00501	–	55.5
313.15 K, m1 = 0.00708	–	53.6
313.15 K, m1 = 0.01	–	51.7
313.15 K, m1 = 0.01429	–	50
313.15 K, m1 = 0.02239	–	47.7
313.15 K, m1 = 0.02818	–	46.8
313.15 K, m1 = 0.03162	–	46.5
313.15 K, m1 = 0.03981	–	46.4
313.15 K, m1 = 0.05	996.64	–
313.15 K, m1 = 0.05012	–	46.3
313.15 K, m1 = 0.0631	–	46.3

CCCCCCCCCCCCCCCC[n+]1ccccc1.[Br-] [1-hexadecylpyridinium bromide] + O
Conditions	electrical conductivity, 298.15 K [S/m]	electrical conductivity, 303.15 K [S/m]	electrical conductivity, 308.15 K [S/m]	electrical conductivity, 313.15 K [S/m]	mass density, 298.15 K [kg/m3]	mass density, 303.15 K [kg/m3]	mass density, 308.15 K [kg/m3]	mass density, 313.15 K [kg/m3]
m1 = 0.0005	–	–	–	–	996.54	995.89	995.18	994.58
m1 = 0.001	0.000196	0.000252	0.000326	0.000401	–	–	–	–
m1 = 0.0015	0.000304	0.000359	0.000436	0.000536	–	–	–	–
m1 = 0.0025	0.00044	0.000505	0.000566	0.000684	–	–	–	–
m1 = 0.004	0.000742	0.000807	0.000884	0.00101	–	–	–	–
m1 = 0.005	0.00105	0.0011	0.00109	0.00135	–	–	–	–
m1 = 0.007	0.00135	0.00141	0.00148	0.00156	–	–	–	–
m1 = 0.009	0.00174	0.0018	0.00187	0.00202	–	–	–	–
m1 = 0.01	0.00192	0.00201	0.00206	0.00236	–	–	–	–
m1 = 0.013	0.00236	0.00241	0.00247	0.00259	–	–	–	–
m1 = 0.015	0.00263	0.00271	0.00276	0.00298	–	–	–	–
m1 = 0.018	0.00313	0.0031	0.00318	0.00336	–	–	–	–
m1 = 0.02	0.00345	0.0035	0.00349	0.00384	–	–	–	–
m1 = 0.024	0.00403	0.00411	0.00416	0.00469	–	–	–	–
m1 = 0.027	0.00443	0.00451	0.00458	0.00497	–	–	–	–
m1 = 0.05	–	–	–	–	998.25	997.33	996.34	995.46

CCCCCCCCCCCCOS(=O)(=O)[O-].[Na+] [sodium dodecyl sulfate] + O
Conditions	electrical conductivity, 298.15 K [S/m]	electrical conductivity, 303.15 K [S/m]	electrical conductivity, 308.15 K [S/m]	electrical conductivity, 313.15 K [S/m]	mass density, 298.15 K [kg/m3]	mass density, 303.15 K [kg/m3]	mass density, 308.15 K [kg/m3]	mass density, 313.15 K [kg/m3]
m1 = 0.0005	–	–	–	–	994.78	994.12	993.69	993.15
m1 = 0.00086	0.000225	0.000289	0.000342	0.000403	–	–	–	–
m1 = 0.00135	0.000346	0.000386	0.000457	0.000515	–	–	–	–
m1 = 0.00161	0.000432	0.000497	0.000568	0.00063	–	–	–	–
m1 = 0.00172	0.000542	0.000598	0.000663	0.000713	–	–	–	–
m1 = 0.0023	0.000768	0.000813	0.00087	0.000946	–	–	–	–
m1 = 0.00342	0.000984	0.00105	0.00113	0.0012	–	–	–	–
m1 = 0.005	0.00144	0.0015	0.00159	0.00169	–	–	–	–
m1 = 0.00681	0.00177	0.00193	0.00189	0.00207	–	–	–	–
m1 = 0.0075	0.00203	0.00211	0.0022	0.00233	–	–	–	–
m1 = 0.0108	0.00264	0.00269	0.00279	0.00295	–	–	–	–
m1 = 0.01283	0.00293	0.00299	0.00305	0.00322	–	–	–	–
m1 = 0.01582	0.00335	0.0034	0.00353	0.00373	–	–	–	–
m1 = 0.01974	0.00392	0.00398	0.00412	0.00432	–	–	–	–
m1 = 0.02351	0.00445	0.0044	0.00455	0.00468	–	–	–	–
m1 = 0.02665	0.00483	0.00487	0.00487	0.00507	–	–	–	–
m1 = 0.05	–	–	–	–	994.74	994.19	993.64	993.11
